In one series the test system is S. aureus MRSA 326. Description: Neutropenic-mouse thigh model. Particulars: neutropenic mice; bolus i.v. dose of 15 mg/kg 2 h after inoculation; sacrificed 4 hours post-infection.
Series [1] has as its system S. epidermidis strain ATCC 12228 and S. aureus ATCC. Type of series: cell-based, Staphylococcus. The protocol: Time-kill curves were obtained to study the kinetics of bactericidal activity. Compounds C30, Hit50 and C29 (for sequences see above) were tested against S. epidermidis strain ATCC 12228 and S. aureus ATCC at the compound's MIC and two times MIC value. It was shown that compound C30 decreased the viable counts by 100% within 5 min, while Hit50 reduced the viable counts by ^˜3 log units after the same incubation period, both at a concentration that equaled its MIC value (see FIG. 11A and FIG. 11B). […] For example the time needed to decrease the number of CFU/ml one-fold for C29 was 60 minutes (at the minimum inhibitory concentration), and only 10 minutes for 2×MIC.

The nature of series [2]: Preliminary in vivo toxicity in rats. Particulars: 1.5 mg/kg and 3 mg/kg, single injection into a tail vein, observed over several days. The protocol: In order to assess the toxicity of the antibacterial peptide interferors in vivo, eight germ-free fisher male and female rats, weighing approximately ±350 grams were injected with peptide interferor C30 in buffer A: histidine-acetate(pH 6.5) and buffer B phosphate buffer (pH 6.5). Two rats were injected with a concentration of 1.5 mg/kg and two with a concentration of 3 mg/kg. These were single non repeatable injections into a tail vein.

The subject of another series is S. hominis. The following applies: S. hominis; planktonic; 18 hours.
The test system of the next series is bacterial cells. Description: Membrane potential (BacLight kit, DiOC2 red/green fluorescence). Type of series: cell-based. Particulars: 25 μg/ml; after 5 minutes.
Series [3] has as its system Candida albicans SC5314. Nature of the series: Adherence of C. albicans SC5314 to epithelial cell line TR-146. In kind it is cell-based. Particulars: adhesion 1 h. As to the method:
As discussed herein before, C. albicans Als3 also plays a role in adherence and invasion to epithelial and endothelial cells. […] Here we investigated the effect of external application of interferor peptide F9 on C. albicans SC5314 adherence and invasion to epithelial cells. Thereto, Candida cells were incubated together with the human cells (epithelial cell line TR-146) in the presence of peptide F9 during adhesion (1 h) or invasion (3 h). The amount of adhered and internalized cells was determined by counting using epifluorescence.
C. albicans strains were grown in liquid YPD, succinate, pH 6.5 or YNB (4% D-glucose) at 30° C. in a shaking incubator overnight. Candida cells were washed three times with 1× PBS and determined to a final concentration 1×10^5 cells/ml in DMEM containing NaHCO3, D-glucose, Na-pyruvate and stable glutamine without FCS. The TR-146 were grown on 12 mm glass slides and inoculated with Candida cells. Different concentrations of positive peptide F9 (50 μM, 10 μM and 2.5 μM) and negative peptides F9_negat, 13 and 20 (50 μM) were tested on Candida adhesion to epithelial cells. Adhesion assay was allowed for 1 h at 37° C., 5% CO2. After adhesion, the cells were washed three times with 1× PBS to remove non-adherent cells and then fixed with 4% paraformaldehyde for 30 min at room temperature.
After extensive rinsing with 1× PBS, the cells were permeabilized in 0.5% Triton X-100 in water for 5 min, and subsequently stained with calcofluor white (dilution 1:100) for 15 min and further washed with water, three times for 10 min, at 30° C., 180 rpm. Coverslips were mounted inverted on a microscope slide and quantified under epifluorescence using a filter set to detect calcofluor white (filter for DAPI) (Leica DFC350 FX, Mannheim, Germany). The percentage of adhered cells was calculated as an average of attached Candida cells on one hundred areas spread over the entire surface of the coverslip.

Series [4] has as its system Candida glabrata ATCC2001. Description: C. glabrata adhesion and biofilm formation on 96-well polystyrene plates (XTT). Particulars: 96-well polystyrene plates in vitro. Type of series: cell-based. The source says:
The specificity of interferor peptide F9 was investigated for C. albicans as compared to a distant Candida spp., i.e. Candida glabrata ATCC2001, for biofilm formation inhibition in vitro. The beta-aggregation sequence of the F9 peptide ([…] (SEQ ID NO: 71)) is not present in C. glabrata—the most closely related sequence in C. glabrata is […] (SEQ ID NO: 73). […] We tested the effect of F9 against C. glabrata adhesion and biofilm formation on 96-well polystyrene plates in vitro.

For series [5], the system named is Candida albicans SC5314. Nature of the series: C. albicans adhesion on polyurethane catheters (CFU counting). Type of series: cell-based. The following applies: 50 μM; adhesion 90 min at 37° C.; control 3.06 ±0.39. The protocol: In vitro C. albicans biofilm was studied on three different types of biomaterials, namely flat bottom 96-well polystyrene plate (Greiner Bio-One, Germany), silicone (CS Hyde, USA) and polyurethane triple lumen intravenous catheters (2.4mm diameter) (Arrow International Reading, USA). Prior the biofilm set up, silicone was cut into small square pieces (1 cm×1 cm) and polyurethane into 1 cm pieces. Silicone or polyurethane devices were incubated in 99% FBS (F7524, Sigma) overnight at 37° C. Cells were washed and resuspended in 1 x phosphate buffered saline (PBS), pH 7.4. Candida suspension of 1×10^7 cells/ml or 5.10^4 cells/ml was prepared in RPMI1640-MOPS medium, Ssuccinate, pH 6.5 or in YNB medium, 4% D-glucose. In total, 1 ml of the cell suspension was added to the silicone discs or polyurethane catheters placed in 24 well plate and 100 μl of cell suspension was inoculated into 96-well polystyrene plate. The attachment of the cells to a substrate was achieved by incubation at 37° C., for 90 min under static conditions (period of adhesion). […] After that, the biofilms were washed twice with 1×PBS and quantified.
The amount of fungal biofilm biomass formed inside the catheter lumen of in vitro and in vivo explanted catheters was determined by colony forming units (CFU). […] CFUs were counted after two days at 37° C.

No end group written: not given here.

Experimental for S. hominis: Bacteria were grown in a shaking incubator at 37° C. and 160rpm in 50 ml BHI , using individual colonies retrieved from a fresh overnight TSA-sheep blood plate. The cultures were grown to a density of approximately 1×10^8cells/ml and then diluted to 5×10^5 cells/ml in CAMHB (Mc Farland 0.5). Each well contained 100p.I (50p.I of peptide containing MHB plus 50 μl inoculum). The final cell density was 1×10^5 to 5×10^5/ml. After addition of the cell suspension, plates were incubated at 37° C. for 18 to 24 hours. The optical density at 590 nm (OD590) of each well was measured after 5 seconds of shaking the plate using Perkin Elmer spectrophotometer (1420 Multilabel Counter Vicotr 3). […] Each well, where no growth was observed, was also plated on TSA-sheep blood agar plates, incubated at 37° C. overnight and visually inspected.
A microbroth dilution method was used with twofold serial dilutions in CAMHB (according to EMEA guidelines) was used for screening of peptide activity, with concentrations ranging from 0.3 μg/mIto 200 μg/ml.

As to RILLGLIRRGSRILLGLIRR [C30], the “reduction of expansion of initial inoculum” value with S. aureus MRSA 326 was found to be 6.9 Log10 CFU/ml. In series [1], the “time needed to kill Staphylococci” value was in the range of 5 to 10 min. In addition, the “decrease of viable counts” value in series [1] (Staphylococcus epidermidis and Staphylococcus aureus, 5 min, 1 ×MIC) came to 100%. For the same sequence, the “mortality and side effects” value in series [2] was “no mortality nor any other side effects were apparently visible”. Further, the MIC entry against S. hominis is reported as “S. hominis: 3 μg/ml”. Also, the “membrane potential (MP) change” value in the series with bacterial cells is “full depolarization of the MP”.
With RKLLFNLGSRNGIVIVATTR [F9], the figures for the “decrease of Candida adhesion to epithelial cells compared to the control” value with Candida albicans SC5314 [3] (2.5 μM), in the series on Candida albicans SC5314 [3] (10 μM) and with Candida albicans SC5314 [3] (50 μM) were about 15%, “approximately 20%” and 40%, respectively. Besides, the “C. glabrata adhesion and biofilm development” value in series [4] is “did not interfere with C. glabrata adhesion and biofilm development”. Moreover, the “attachment to polyurethane devices” value with Candida albicans SC5314 [5] is recorded as 2.18 ±0.12 logio CFU/catheter fragment.

Source of the values: patent US20220033448A1, “METHODS FOR AGGREGATION OF PROTEINS” (priority 2011, published 2022).
